Measurements from US10391150B2, “Treatments for migraine and related disorders” (The University of Chicago, priority 2011, dated 2019).

B1: Interferon-gamma (protein, listed as Homo sapiens)
chain: MKYTSYILAFQLCIVLGSLGCYCQDPYVKEAENLKKYFNAGHSDVADNGTLFLGILKNWKEESDRKIMQSQIVSFYFKLFKNFKDDQSIQKSVETIKEDMNVKFFNSNKKKRDDFEKLTNYSVTDLNVQRKAIHELIQVMAELSPAAKTGKRKRSQMLFRGRRASQ

Experiments:
[1] = tested on: CA3 pyramidal neuron spontaneous activity; test: Spontaneous CA3 pyramidal neuron spiking / bursting in slice cultures; type: cell-based, rat
Protocol: FIGS. 12a-12e IGF-1 increased spontaneous neuronal spiking activity. (FIG. 12a) Exemplary recording of unstimulated control CA3 pyramidal layer spontaneous electrophysiological activity. (FIG. 12b) Exemplary recording of 3-day IGF-1-exposed CA3 pyramidal layer spontaneous electrophysiological activity. […] Seven day treatments consisted of IGF-1 exposure for only 12 hours daily. Comparisons between groups made via ANOVA plus Holm-Sidak post hoc testing.

glutathione = test: Slice culture glutathione by Thiol Tracker; type: cell-based, rat; conditions: pulsed exposure to IFN-γ or exosomes from IFN-γ-pulsed slice cultures
Description: FIGS. 17A-17B. Detection of an IFN-γ-induced rise in slice culture glutathione using Thiol Tracker™, a fluorescent indicator of glutathione. […] (FIG. 17B) Furthermore, this increase is significant (p<0.001; n≥5/group) and can be mimicked by exposure to exosomes isolated from slice cultures activated by pulsed-exposure to IFN-γ.
Since stimulated immune cells release exosomes that are capable of reducing OS in recipient cells, the inventors next tested whether IFN-γ stimulated slice cultures (and possibly their microglia) to release exosomes that mimicked the effects of IFN-γ. […] IFN-γ, when pulsed onto slice cultures for 12 hours triggers the release of nutritive exosomes that mimic the effect of pulsed exposure to IFN-γ (16, 17). Since pulsed-exposure to IFN-γ reduces OS and glutathione is a naturally occurring inhibitor of neutral sphingomyelinase, the inventors probed for an IFN-γ-induced rise in slice culture glutathione using Thiol Tracker™, a fluorescent indicator of glutathione (FIG. 17).

Row | Molecule | spontaneous CA3 pyramidal neuron bursting versus control ([1]; 3-day IGF-1 treatment) | spontaneous CA3 pyramidal neuron bursting versus control ([1]; 7-day IGF-1 treatment, 12 hours daily) | spontaneous CA3 pyramidal neuron spiking versus control ([1]; acute IGF-1 treatment) | slice culture / microglial glutathione (glutathione)
1 | Insulin-like growth factor 1 [IGF-1] | increase in spontaneous CA3 pyramidal neuron bursting | increase in spontaneous CA3 pyramidal neuron bursting | increase in spontaneous CA3 pyramidal neuron spiking | –
2 | B1 | – | – | – | selectively increases microglial glutathione
